Columns and labels:
Format in all cases: in vivo, Sprague-Dawley rats
[1] = test system: tyrosine hydroxylase (TH)-positive cells; test: Immunofluorescence staining of TH in Str and SN brain regions; conditions: Mean ± SEM, N=15; for TH staining SN positive cells num.: Model 0.9 ± 0.5; for TH staining Str Fluorescence intensity: Model 11.1 ± 3.0
Procedure: After the rat was anesthetized, the abdominal cavity and thorax were cut open with straight scissors to expose the heart. The blood was first flushed out with normal saline perfusion, and then paraformaldehyde was used for initial perfusion fixation. The head was cut off, and the brain case was carefully opened with tweezers, and the brain tissue was removed and placed in paraformaldehyde solution and fix for 24 h; on the second day, took out the brain tissue and placed in 20% sucrose solution for 24 h; on the third day, took out the brain tissue and placed in 30% sucrose solution for 24 h; on the fourth day, took out the brain tissue and placed in 35% sucrose solution for 24 h (increase the time or concentration appropriately according to the condition of sugar deposition in the brain tissues); took out the brain tissue, embedded it in OCT embedding agent, and cut brain slices at the thickness of […] with a freezing microtome.
Immunohistochemical staining of TH and Iba-1 was performed on the sections. Sections were rewarmed for 30 min, closed at room temperature for 1 h with 50% serum+0.3% TritonX-100 in 50 μL per slice, shook off the slices, added primary antibody (diluted in PBS), overnight at 4° C.; rewarmed for 30 min; washed off primary antibody (PBS), 5 min×3 times; added secondary antibody (diluted in PBS) by backlighting, room temperature for 2 h; washed off secondary antibody (PBS), 5minx 3 times; added (4′,6-diamidino-2-phenylindole) (DAPI), and stayed at room temperature for 10 min; washed off DAPI, 5 min×3 times; added 70% glycerol to seal the slices to avoid air bubbles. Observed and took pictures under a microscope. Selected basically the same target brain area for each slice. Afterwards, ImageJ was used to count the signal number or area of the entire slice.
Experimental Methods: Seventy 180-220g SD male rats were selected and fed for one week for accumulation, and the PD model was established by stereotactic unilateral injection of 6-OHDA in the Substantia Nigra (SN) and Striatum (Str) regions and were randomly divided into five groups according to their body weights including Madopar group (Madopar, 50 mg/kg), BTUDC-L group (BTUDC, 100 mg/kg), BTUDC-M group (BTUDC, 500 mg/kg), and BTUDC-H group (BTUDC, 1000 mg/kg), with 10 animals in each group. Another 10 SD male rats were taken for sham operation (only 4 μL of 0.9% NS containing 0.02% ascorbic acid was given to the SN and Str brain regions during modeling) as the Sham group. The drug was administered by gavage once daily continuously for 21 days starting on the second day of modeling (first day of dosing, D1). General observation was made during the dosing period. At the end of the administration, the test articles were evaluated for tolerance in this model and in behavioral apomorphine—asymmetric rotation test, beam test, rotarod test and grip strength test, immunofluorescence staining (TH, Ibal), and cerebrospinal fluid inflammatory factor assays to evaluate the pharmacodynamic effects of the test articles. Inflammatory factors tested included interleukin 6 (1L-6), inflammatory factor […], Tumor Necrosis Factor alpha (TNF-α), inflammatory assays were done in a total of 4 groups included Sham, Model, Madopar and BTUDC-H groups.
Dosing volume: 10 mL/kg • 1. General observation: During the period of drug administration, body weight, food intake test and cage side observation were conducted every 3 days. • 2. Behavioral test: After 21 days of administration, behavioral test was carried out on the following day. • 3. […]

[2] = test system: 6-OHDA Stereotactic Injection Induced PD Rats; test: Grip strength test; conditions: for Peak Grip Strength: Mean ± SEM, N=10, Model 558.334 ± 10.175, p<0.001 vs Model
Text: (§1) The rats were respiratory anesthetized with isoflurane; the head was fixed to ensure that there was no movement and the brain surface was adjusted to be flat; the head was shaved, and a skin incision was made along the sagittal suture to expose the fontanel point; the glass electrode was positioned to the fontanel, and the axes of the coordinate monitor were zeroed to locate the brain areas of the SN and the Str based on the coordinates, in which the SN: AP=−5.0 mm; ML=−1.9 mm; DV=−8.5 mm, and Str: AP=+0.5 mm; ML=−3.0 mm; DV=−6.0 mm. […]; slowly inserted the needle into the localized area of SN and Str, waited for 10 min, and then administered the drug of 6-OHDA at a rate of […] for 10 min, and each animal was given […] of each of SN and Str area, and then the needle was slowly withdrawn after the drug was administered for 10 min, and the PD rat model was established.
The animal was placed on the platform with both forelimbs on the gripping pole, followed by grabbing the animal's tail, and pulling it straight back until the pulling force exceeded their gripping force. After the animals lose their grip, the preamplifier automatically recorded the maximum value of the pulling force. After the measurement was completed, the average of the maximum pulling force of each group of animals was calculated to evaluate the rat's locomotor muscle ability. Information on the grip strength test can also be found in the literature (Jeyasingham, et al. 2001 Brain Res Bull. 55(4):541-8).
In this study, 16 Sprague Dawley (SD) male rats 180g-220g were used to establish a PD model by stereotactic unilateral injection of 6-OHDA in the substantia nigra (SN) and striatum (Str) brain areas after one week of acclimatization feeding and were randomly divided into 2 groups of 8 rats each. […]
(§2) Experimental Methods: Seventy 180-220g SD male rats were selected and fed for one week for accumulation, and the PD model was established by stereotactic unilateral injection of 6-OHDA in the Substantia Nigra (SN) and Striatum (Str) regions and were randomly divided into five groups according to their body weights including Madopar group (Madopar, 50 mg/kg), BTUDC-L group (BTUDC, 100 mg/kg), BTUDC-M group (BTUDC, 500 mg/kg), and BTUDC-H group (BTUDC, 1000 mg/kg), with 10 animals in each group. […] At the end of the administration, the test articles were evaluated for tolerance in this model and in behavioral apomorphine—asymmetric rotation test, beam test, rotarod test and grip strength test, immunofluorescence staining (TH, Ibal), and cerebrospinal fluid inflammatory factor assays to evaluate the pharmacodynamic effects of the test articles. […]

[3] = test system: 6-OHDA Stereotactic Injection Induced PD Rats; test: Rotarod test; conditions: for Time on the Rod: Mean ± SEM, N=10, Model 63.250 ± 9.871
Text: as §1
The rotation speed of the rotary rod fatigue meter was set to 20 rpm/min with the test time of 5 min. The animals were placed on the rotating rod in batches for testing, and the time each animal spent on the rod was recorded to evaluate the motor coordination ability of the rats. Information on the rotarod test can also be found in the literature (Bohlen, et al. 2009 J Neurosci Methods 178(1):10-4).
In this study, 16 Sprague Dawley (SD) male rats 180g-220g were used to establish a PD model by stereotactic unilateral injection of 6-OHDA in the substantia nigra (SN) and striatum (Str) brain areas after one week of acclimatization feeding and were randomly divided into 2 groups of 8 rats each. One group was dosed with the test compound BTUDC 500 mg/kg (QD, p.o.) and the other group was the Model group, which was given an equal volume of 0.5% CMC-Na (QD, p.o.) as the test compound group. […]
as §2

[4] = BTUDC-H 1000 mg/kg p.o. Qd 21 days, p<0.001 vs Model
[5] = BTUDC-L 100 mg/kg p.o. Qd 21 days, no significance mark
[6] = BTUDC-M 500 mg/kg p.o. Qd 21 days, p<0.001 vs Model

Compound: COc1ccc2cc3[n+](cc2c1OC)CCc1cc2c(cc1-3)OCO2.C[C@H](CCC(=O)NCCS(=O)(=O)[O-])[C@H]1CC[C@H]2[C@@H]3[C@@H](O)C[C@@H]4C[C@H](O)CC[C@]4(C)[C@H]3CC[C@]12C [BTUDC, Berberine tauroursodeoxycholate]
- TH staining SN positive cells num. [1, 4]: 12.7 ± 3.1
- TH staining Str Fluorescence intensity [1, 4]: 65.8 ± 4.4
- TH staining SN positive cells num. [1, 5]: 0.7 ± 0.3
- TH staining Str Fluorescence intensity [1, 5]: 19.8 ± 3.5
- TH staining SN positive cells num. ([1]; BTUDC-M 500 mg/kg p.o. Qd 21 days, no significance mark): 2.0 ± 0.6
- TH staining Str Fluorescence intensity [1, 6]: 32.6 ± 5.5
- Grip Strength Test Peak grip strength(gf) ([2]; 500 mg/kg QD p.o. 21 days, Model 535.521 ± 15.5632, P < 0.001 vs Model): 757.479 ± 7.5044 gf
- Peak Grip Strength ([2]; BTUDC-H 1000 mg/kg p.o. Qd 21 days): 767.101 ± 6.668
- Peak Grip Strength ([2]; BTUDC-L 100 mg/kg p.o. Qd 21 days): 711.616 ± 7.934
- Peak Grip Strength ([2]; BTUDC-M 500 mg/kg p.o. Qd 21 days): 737.000 ± 8.222
- Rotarod Test Rod time ([3]; 500 mg/kg QD p.o. 21 days, Model 44.063 ± 4.6049, P < 0.001 vs Model): 252.413 ± 14.4032 s
- Time on the Rod [3, 4]: 172.625 ± 17.355 s
- Time on the Rod [3, 5]: 103.220 ± 5.806 s
- Time on the Rod [3, 6]: 148.070 ± 21.760 s

From patent US20260217699A1, “BERBERINE TAUROURSODEOXYCHOLATE COMPOSITIONS AND METHODS THEREOF” (SHENZHEN HIGHTIDE BIOPHARMACEUTICAL LTD., priority 2023, published 2026)
